According to patent publication US12678388B2, “Dermatological compositions and use thereof” (BONE SCI. BIO LTD., priority 2021, dated 2026):
Peptide text beside a SMILES is read from it.

Experiments:
Assay type in all cases: in vivo
[1] = test system: albino rabbits; experiment: Intracutaneous reactivity test; conditions: for primary irritation index (Treated-Control): 0.2 ml intracutaneous; for erythema and oedema at treated sites: 24, 48 and 72 hours, same in vehicle control sites
Experimental: In order to test the potential irritation effects of the formulation according to certain embodiments of the present invention, an intracutaneous reactivity test was performed. Two extracts of a 3% w/v PFD5 hydrogel sample, one in a non-polar vehicle, cottonseed oil, and one in a polar vehicle, sodium chloride injection (0.9%), were prepared by immersing the sample in the relative solvents in order to reach a weight/volume ratio of 0.2 g/ml and incubating at 37±1° C. for 72±2 h in dynamic conditions (orbital stirrer). 0.2 ml of the two extracts and 0.2 ml of the respective solvents were intracutaneously injected in five sites of 3 albino rabbits, and macroscopical skin reactions, as erythema, oedema and eschar were evaluated. No abnormalities immediately after intradermal injection of sodium chloride injection extract and sodium chloride injection (vehicle control) were observed. […] The primary irritation index in sodium chloride injection (Treated-Control) was 0.00. No abnormalities immediately after intradermal injection of cottonseed oil extract and cottonseed oil (vehicle control) were observed. […] The primary irritation index in cottonseed oil (Treated-Control) was 0.00.

[2] = test system: albino rabbits; experiment: Implantation test (local implantation effects, femur); conditions: 3% w/v PFD5 formulation
Experimental: In order to test the local implantation effects of a 3% w/v PFD5 formulation according to certain embodiments of the present invention, an implantation test was performed.
10 albino rabbits were used for the test: each animal was implanted with the test sample at the right femur and with negative control (USP reference standard control plastic, HDPE) at the left femur, for a total of two sites/animal.
One explant time was scheduled after 4 weeks. Animals were daily submitted to general objective exam with the purpose to detect possible local effects due to the sample. The behavior of animals was observed and all abnormalities were recorded. During the explant, all implanted sites with the test sample and with the negative control were harvested and observed macroscopically to determine any injuries. Implantation sites of each animal and local lymph nodes were preserved in formalin 10% buffer solution and used for histological evaluation. […] Nothing abnormal was detected macroscopically in both treated and control sites of all animals.

[3] = test system: rats; experiment: Tissue augmentation in subcutaneous rat model; conditions: PFD5 3.5% w/v
Experimental: The effect of PFD5 3.5% w/v hydrogel on tissue augmentation was tested in a subcutaneous rat model and compared to the effect obtained in rats treated with a commercially available hyaluronic acid dermal filler. Individual rats were treated with 0.2 ml of PFD5 hydrogel or HA injection administered subcutaneously above the parietal bone. Animals were held for three days, one month and four months after which implants were excised and underwent histological examination and analysis for the area occupied by the implant. […] Due to the lower swellability of the PFD5 hydrogel as compared to the HA hydrogel, the area remained more invariable.

O=C(O)C[C@H](NC(=O)[C@@H]1CCCN1)C(=O)N[C@@H](Cc1ccccc1)C(=O)N[C@@H](CC(=O)O)C(=O)N[C@@H](Cc1ccccc1)C(=O)N[C@@H](CC(=O)O)C(=O)N[C@@H](Cc1ccccc1)C(=O)N[C@@H](CC(=O)O)C(=O)N[C@@H](Cc1ccccc1)C(=O)N[C@@H](CC(=O)O)C(=O)N[C@@H](Cc1ccccc1)C(=O)N[C@@H](CC(=O)O)C(=O)N1CCC[C@H]1C(=O)O [PFD5, Pro-(Asp-Phe)5-Asp-Pro] (H-PDFDFDFDFDFDP-OH)
primary irritation index (Treated-Control) ([1]; cottonseed oil extract of 3% w/v PFD5 hydrogel): 0.00 | erythema and oedema at treated sites ([1]; cottonseed oil extract): a slight erythema and a slight oedema | primary irritation index (Treated-Control) ([1]; sodium chloride injection extract of 3% w/v PFD5 hydrogel): 0.00 | erythema and oedema at treated sites ([1]; sodium chloride injection extract): no signs of erythema or oedema | inflammatory responses or necrosis at the sites of implantation ([2]; 4 weeks): no inflammatory responses or necrosis | local effects compared to the negative control ([2]; 4 weeks after implantation, control HDPE): Minimal local effects | adverse tissue reaction (histology) [3]: deprived of multinucleated giant cells or other adverse effects to nearby tissue
